In article PMC11520566, “Discovery of pyrazole-based analogs as CDK2 inhibitors with apoptotic-inducing activity: design, synthesis and molecular dynamics study” (RSC Advances, 2024):

Experiments:
HCT-116 cells = assay: Flow cytometric analysis of apoptosis (Annexin V-FITC/PI); assay type: cell-based; conditions: 1.806 μM, 48 h
Method: For the detection of apoptosis in the treated cells, the Annexin V-FITC-apoptosis detection kit (PN IM3546) was used, followed by flow cytometric analysis according to the manufacturer's protocol. In this assay, HCT-116 cells were allowed to grow in a […] flask until 70–80% confluence. Then, the HCT-116 cells were treated with compound 4 for 48 h, followed by washing with PBS, and suspended in binding buffer. To […] of the cell suspension, […] of annexin V-FITC solution and […] of dissolved PI were added and incubated for 15 min in the dark. Then […] of ice-cold binding buffer was added and mixed gently. The flow cytometric analysis of the percentage of apoptotic cells was performed on a COULTER® EPICS® XL™ Flow Cytometer (USA).[35]

NCI-H23 = assay: NCI 60 five dose assay, Non-small cell lung cancer; assay type: cell-based, human
NCI 60 cancer cell lines = assay: NCI 60 single dose screen, mean over full panel; assay type: cell-based, human; conditions: mean over NCI 60 cell lines; single dose 10 μM
Method: The newly synthesized pyrazoles 2a–g, 7a–d, 8a and b, 9, and 10 were submitted to the National Cancer Institute (NCI) Developmental Therapeutics Program (http://www.dtp.nci.nih.gov) for assessment of their potential antiproliferative activity against a panel of NCI 60 cancer cell lines. All compounds were approved for screening against the approved 60 cancer cell lines at a single dose of 10 μM. The human cancer cell lines were derived from 9 variant cancer types including leukemia, melanoma, lung, colon, CNS, ovarian, renal, prostate and breast cancers. The results are presented as percentage of growth inhibition (GI%) of the screened compounds against the full panel of cell lines.
Under sterile conditions, the cell lines were grown in RPMI 1640 media (Gibco, NY, USA) supplemented with 10% fetal bovine serum (Biocell, CA, USA), and […] cell/mL was used to test the growth inhibition activity of the synthesized compounds. The compounds with concentrations ranging from 0.01 to 100 μM were prepared in phosphate buffer saline. Each compound was initially solubilized in dimethyl sulfoxide (DMSO); however, each final dilution contained less than 1% DMSO. Solutions of different concentrations (0.2 mL) were pipetted into the separate well of a microtiter tray in duplicate. Cell culture (1.8 mL) containing a cell population of […] cells per mL was pipetted into each well. Controls, containing only phosphate buffer saline and DMSO at identical dilutions, were also prepared in the same manner. These cultures were incubated in a humidified incubator at 37 °C. The incubator was supplied with 5% CO2 atmosphere. After 48 h, the cells in each well were diluted 10 times with saline and counted using a Coulter counter. The counts were corrected for the dilution.[34]

A498 = assay: NCI 60 five dose assay, Renal cancer; assay type: cell-based, human
HCT-15 = assay: NCI 60 five dose assay, Colon cancer; assay type: cell-based, human
A549/ATCC = assay: NCI 60 five dose assay, Non-small cell lung cancer; assay type: cell-based, human
CCRF-CEM = assay: NCI 60 five dose assay, Leukemia; assay type: cell-based, human
UACC-257 = assay: NCI 60 five dose assay, Melanoma; assay type: cell-based, human
HCT-116 cell line = assay: MTT cell viability assay; assay type: cell-based; conditions: Homo sapiens, read-out: IC50 (cytotoxicity, MTT)
UO-31 = assay: NCI 60 five dose assay, Renal cancer; assay type: cell-based, human
HS 578T = assay: NCI 60 five dose assay, Breast cancer; assay type: cell-based, human
EKVX = assay: NCI 60 five dose assay, Non-small cell lung cancer; assay type: cell-based, human
HCC-2998 = assay: NCI 60 five dose assay, Colon cancer; assay type: cell-based, human
NCI/ADR-RES = assay: NCI 60 five dose assay, Ovarian cancer; assay type: cell-based, human
M14 = assay: NCI 60 five dose assay, Melanoma; assay type: cell-based, human
[1] = Homo sapiens, read-out: LC50 (the source's name)

## CC(=NNc1ccc(S(N)(=O)=O)cc1)c1ccc(NN=C2C(=O)NN=C2Nc2ccccc2)cc1 [Compound 4, 4-(2-(1-(4-(2-(5-oxo-3-(phenylamino)-1,5-dihydro-4H-pyrazol-4-ylidene)hydrazinyl)phenyl)ethylidene)hydrazinyl)benzene sulfonamide]
HCT-116 cells; control 0.13
  Apoptosis, Late: 15.81%
HCT-116 cells; control 0.35
  Apoptosis, Early: 4.63%
HCT-116 cells; control 1.58
  Necrosis: 7.21%
HCT-116 cells; control 2.06
  Apoptosis, Total: 27.65%
NCI-H23; Homo sapiens
  GI50: 2.54 µM
NCI-H23; [1]
  CC50: 23.1 µM
NCI-H23; Log10 Concentration -4.0 Molar
  Percent Growth: -98%
NCI-H23; Log10 Concentration -5.0 Molar
  Percent Growth: -23%
NCI-H23; Log10 Concentration -6.0 Molar
  Percent Growth: 99%
NCI-H23; Log10 Concentration -7.0 Molar
  Percent Growth: 105%
NCI-H23; Log10 Concentration -8.0 Molar
  Percent Growth: 105%
NCI 60 cancer cell lines
  mean GI%: 96.47%
A498; Homo sapiens
  GI50: 11.4 µM
A498; [1]
  CC50: 94.7 µM
A498; Log10 Concentration -4.0 Molar
  Percent Growth: -53%
A498; Log10 Concentration -5.0 Molar
  Percent Growth: 56%
A498; Log10 Concentration -6.0 Molar
  Percent Growth: 87%
A498; Log10 Concentration -7.0 Molar
  Percent Growth: 87%
A498; Log10 Concentration -8.0 Molar
  Percent Growth: 77%
HCT-15; Homo sapiens
  GI50: 5.29 µM
HCT-15; [1]
  CC50: 42.9 µM
HCT-15; Log10 Concentration -4.0 Molar
  Percent Growth: -100%
HCT-15; Log10 Concentration -5.0 Molar
  Percent Growth: 36%
HCT-15; Log10 Concentration -6.0 Molar
  Percent Growth: 87%
HCT-15; Log10 Concentration -7.0 Molar
  Percent Growth: 98%
HCT-15; Log10 Concentration -8.0 Molar
  Percent Growth: 99%
A549/ATCC; Homo sapiens
  GI50: 19.4 µM
A549/ATCC; [1]
  CC50: > 100 µM
A549/ATCC; Log10 Concentration -4.0 Molar
  Percent Growth: 7%
A549/ATCC; Log10 Concentration -5.0 Molar
  Percent Growth: 67%
A549/ATCC; Log10 Concentration -6.0 Molar
  Percent Growth: 100%
A549/ATCC; Log10 Concentration -7.0 Molar
  Percent Growth: 108%
A549/ATCC; Log10 Concentration -8.0 Molar
  Percent Growth: 100%
CCRF-CEM; Homo sapiens
  GI50: 2.63 µM
CCRF-CEM; [1]
  CC50: > 100 µM
CCRF-CEM; Log10 Concentration -4.0 Molar
  Percent Growth: -31%
CCRF-CEM; Log10 Concentration -5.0 Molar
  Percent Growth: -5%
CCRF-CEM; Log10 Concentration -6.0 Molar
  Percent Growth: 90%
CCRF-CEM; Log10 Concentration -7.0 Molar
  Percent Growth: 100%
CCRF-CEM; Log10 Concentration -8.0 Molar
  Percent Growth: 98%
UACC-257; Homo sapiens
  GI50: 3.97 µM
UACC-257; [1]
  CC50: 75.5 µM
UACC-257; Log10 Concentration -4.0 Molar
  Percent Growth: -59%
UACC-257; Log10 Concentration -5.0 Molar
  Percent Growth: 17%
UACC-257; Log10 Concentration -6.0 Molar
  Percent Growth: 99%
UACC-257; Log10 Concentration -7.0 Molar
  Percent Growth: 93%
UACC-257; Log10 Concentration -8.0 Molar
  Percent Growth: 89%
HCT-116 cell line
  IC50: 1.81 µM
UO-31; Homo sapiens
  GI50: 19.4 µM
UO-31; [1]
  CC50: > 100 µM
UO-31; Log10 Concentration -4.0 Molar
  Percent Growth: 2%
UO-31; Log10 Concentration -5.0 Molar
  Percent Growth: 69%
UO-31; Log10 Concentration -6.0 Molar
  Percent Growth: 81%
UO-31; Log10 Concentration -7.0 Molar
  Percent Growth: 89%
UO-31; Log10 Concentration -8.0 Molar
  Percent Growth: 84%
HS 578T; Homo sapiens
  GI50: 3.31 µM
HS 578T; [1]
  CC50: > 100 µM
HS 578T; Log10 Concentration -4.0 Molar
  Percent Growth: -28%
HS 578T; Log10 Concentration -5.0 Molar
  Percent Growth: 11%
HS 578T; Log10 Concentration -6.0 Molar
  Percent Growth: 92%
HS 578T; Log10 Concentration -7.0 Molar
  Percent Growth: 93%
HS 578T; Log10 Concentration -8.0 Molar
  Percent Growth: 85%
EKVX; Homo sapiens
  GI50: 5.39 µM
EKVX; [1]
  CC50: > 100 µM
EKVX; Log10 Concentration -4.0 Molar
  Percent Growth: -48%
EKVX; Log10 Concentration -5.0 Molar
  Percent Growth: 36%
EKVX; Log10 Concentration -6.0 Molar
  Percent Growth: 89%
EKVX; Log10 Concentration -7.0 Molar
  Percent Growth: 102%
EKVX; Log10 Concentration -8.0 Molar
  Percent Growth: 98%
HCC-2998; Homo sapiens
  GI50: 2.29 µM
HCC-2998; [1]
  CC50: 21.3 µM
HCC-2998; Log10 Concentration -4.0 Molar
  Percent Growth: -100%
HCC-2998; Log10 Concentration -5.0 Molar
  Percent Growth: -26%
HCC-2998; Log10 Concentration -6.0 Molar
  Percent Growth: 93%
HCC-2998; Log10 Concentration -7.0 Molar
  Percent Growth: 88%
HCC-2998; Log10 Concentration -8.0 Molar
  Percent Growth: 80%
NCI/ADR-RES; Homo sapiens
  GI50: > 100 µM
NCI/ADR-RES; [1]
  CC50: > 100 µM
NCI/ADR-RES; Log10 Concentration -4.0 Molar
  Percent Growth: 65%
NCI/ADR-RES; Log10 Concentration -5.0 Molar
  Percent Growth: 86%
NCI/ADR-RES; Log10 Concentration -6.0 Molar
  Percent Growth: 96%
NCI/ADR-RES; Log10 Concentration -7.0 Molar
  Percent Growth: 101%
NCI/ADR-RES; Log10 Concentration -8.0 Molar
  Percent Growth: 97%
M14; Homo sapiens
  GI50: 2.83 µM
M14; [1]
  CC50: 35.1 µM
M14; Log10 Concentration -4.0 Molar
  Percent Growth: -80%
M14; Log10 Concentration -5.0 Molar
  Percent Growth: -14%
M14; Log10 Concentration -6.0 Molar
  Percent Growth: 103%
M14; Log10 Concentration -7.0 Molar
  Percent Growth: 101%
M14; Log10 Concentration -8.0 Molar
  Percent Growth: 93%
